Measurements: patent US20220273631A1, “METHOD FOR TREATING SEXUAL DYSFUNCTION” (Catalyst Pharmaceuticals, Inc., priority 2019, published 2022)

Columns and labels:
subject one = test: Female Sexual Functioning Index (FSFI) self-report before and after 4-week oral treatment; assay type: in vivo, human; conditions: for FSFI: confidence about becoming sexually aroused / FSFI: difficulty to become lubricated / FSFI: difficulty to maintain lubrication until completion / FSFI: difficulty to reach orgasm / FSFI: how often became lubricated / FSFI: how often felt sexual desire or interest / FSFI: how often felt sexually aroused / FSFI: how often maintained lubrication until completion / FSFI: how often reached orgasm / FSFI: how often satisfied with arousal / FSFI: level of sexual arousal / FSFI: level of sexual desire or interest / FSFI: satisfaction with ability to reach orgasm / FSFI: satisfaction with amount of emotional closeness with partner / FSFI: satisfaction with overall sexual life / FSFI: satisfaction with sexual relationship with partner: post-treatment FSFI
Text: The “Female Sexual Functioning Index” or “FSFI” is a 19-item self-report inventory designed to assess female sexual function. It comprises six domains: desire (two items)], arousal (four items), lubrication (four items), orgasm, satisfaction, and pain (three items each).
The therapeutic efficacy of 3,4-diaminopyridine and its salts in the present methods can be determined by clinicians, for example, by using appropriate self-report inventories or questionnaires. In some embodiments, the therapeutic efficacy of 3,4-diaminopyridine, or a pharmaceutically acceptable thereof, in the present methods in female subjects can be assessed by the Female Sexual Functioning Index (FSFI) designed to measure sexual functioning in women. See, e.g., Rosen et al., Journal of Sex and Marital Therapy 26:191-208 (2000).
subject one self-reported their sexual functioning for the past 4 weeks using the FSFI questionnaire (“the pre-treatment FSFI”).
The subject then orally self-administered a total daily dose of 80 mg of 3,4-diaminopyridine phosphate salt for 4 weeks. The last dose of each day was self-administered at about 5:30 pm. The timing of their sexual activity, if any, was in the evening.
After the 4-week treatment period, the subject self-reported their sexual functioning for the past 4 weeks using the FSFI questionnaire (“the post-treatment FSFI”).
The subject then orally self-administered a total daily dose of 60 mg of 3,4-diaminopyridine phosphate salt for 4 weeks. The last dose of each day was self-administered at about 6 pm. The timing of their sexual activity, if any, was in the evening at 8-9 pm.
The subject then orally self-administered a total daily dose of 40 mg of 3,4-diaminopyridine phosphate salt for 4 weeks. The last dose of each day was self-administered at about 11 pm (5 mg). The timing of their sexual activity, if any, was in the morning, afternoon, and at night.

subject two = test: International Index of Erectile Function (IIEF) self-report before and after 4-week oral treatment; assay type: in vivo, human; parameters: key to IIEF question 1 score: able to get an erection during sexual activity / IIEF question 4 score: able to maintain erection after penetration / IIEF question 7 score: attempted intercourse satisfactory: each question scored 0-5; conditions: for IIEF question 1 score: able to get an erection during sexual activity / IIEF question 2 score: erections hard enough for penetration / IIEF question 3 score: able to penetrate partner when attempting intercourse / IIEF question 4 score: able to maintain erection after penetration / IIEF question 5 score: difficulty to maintain erection to completion of intercourse / IIEF question 6 score: attempts for sexual intercourse / IIEF question 7 score: attempted intercourse satisfactory / IIEF question 8 score: enjoyment of sexual intercourse / IIEF question 9 score: ejaculated with sexual stimulation or intercourse / IIEF question 10 score: feeling of orgasm or climax / IIEF question 11 score: how often felt sexual desire / IIEF question 12 score: level of sexual desire / IIEF question 13 score: satisfaction with overall sex life / IIEF question 14 score: satisfaction with sexual relationship with partner / IIEF question 15 score: confidence to get and keep an erection: post-treatment IIEF
Text: The “International Index of Erectile Function” or “IIEF” is a self-report inventory consisting of 15 questions and 5 functional domains, which was developed for use in determining efficacy of treatment in controlled clinical trials. The IIEF has high sensitivity and specificity for detecting real treatment effects or the lack of treatment effects in patients with ED of broad-spectrum etiology. A score of 0-5 is awarded to each of the 15 questions that examine the 4 main domains of male sexual function: erectile function, orgasmic function, sexual desire, and intercourse satisfaction. Rosen, R., et al. (in Urology 49:822-830 (1997)) describe a study where the IIEF was tested in a series of 111 men with […] and 109 age-matched, normal volunteers. In some embodiments, the therapeutic efficacy of 3,4-diaminopyridine, or a pharmaceutically acceptable thereof, in the present methods in male subjects can be assessed by the Brief Male Sexual Function Inventory (BSFI) described by, for example, Mykletun et al., BJU International 97:316-323 (2005). In some embodiments, the Male Sexual Health Questionnaire (MSHQ) can be used to assess sexual function and satisfaction in older men with urogenital symptoms of lower urinary tract and sexual dysfunction. See, e.g., Rosen, et al., Urology 64(4):777-782 (2004). In some embodiments, the therapeutic efficacy of 3,4-diaminopyridine, or a pharmaceutically acceptable thereof, in the present methods in male subjects, can be assessed by the 15-question International Index of Erectile Function (IIEF) described by, for example, Rosen et al., Urology 49:822-830 (1997). […] The subject then orally self-administered a total daily dose of 60 mg (4 times 15 mg) of 3,4-diaminopyridine phosphate salt for 4 weeks. The last dose of each day was self-administered at about 8:30 pm. The timing of their sexual activity, if any, was at about 11:30 am (after the 11 am dose) or at about 4 pm. After the 4-week treatment period, the subject self-reported sexual functioning for the past 4 weeks using the IIEF questionnaire (“the post-treatment IIEF”). […] The subject then orally self-administered a total daily dose of 80 mg (4 times 20 mg) of 3,4-diaminopyridine phosphate salt for 4 weeks. The last dose of each day was self-administered at about 6:30 pm. The timing of their sexual activity, if any, was at about 7:30 pm. After the 4-week treatment period, the subject self-reported sexual functioning for the past 4 weeks using the IIEF questionnaire (“the post-treatment IIEF”).

[1] = Example 1 subject one, total daily dose 80 mg orally for 4 weeks
[2] = Example 2 subject one, total daily dose 60 mg orally for 4 weeks
[3] = Example 3 subject one, total daily dose 40 mg orally for 4 weeks
[4] = four week course of an effective daily dose, general statement
[5] = Example 4, subject, 60 mg daily (4 times 15 mg) orally for 4 weeks
[6] = Example 4, subject, 60 mg daily orally for 4 weeks
[7] = Example 4, subject, 60 mg daily orally for 4 weeks, maximum score 10, pre-treatment score 4
[8] = Example 5, subject, 80 mg daily (4 times 20 mg) orally for 4 weeks

Nc1ccncc1N.O=P(O)(O)O [3,4-diaminopyridine phosphate salt]
shorter: time to reach orgasm (subject report) (subject one; [1]) | time to reach orgasm (subject report) (subject one; [2])
5: IIEF question 11 score: how often felt sexual desire (subject two; [5]) | IIEF question 11 score: how often felt sexual desire (subject two; [8])
increased orgasmic ability: orgasmic ability (FSFI before and after) (subject one; [4])
11: Post-Treatment Score, IIEF domain D. Intercourse Satisfaction (questions 6-8) (subject two; Example 4, subject, 60 mg daily orally for 4 weeks, maximum score 15, pre-treatment score 5)
moderate: FSFI: level of sexual desire or interest (subject one; [1])
increased sexual satisfaction: sexual satisfaction (FSFI before and after) (subject one; [4])
more aroused: arousal (subject report) (subject two; [6])
better: emotional experience with partner (subject report) (subject one; [1]) | emotional experience with partner (subject report) (subject one; [2]) | overall sexual performance (subject report) (subject two; [6]) | overall sexual performance (subject report) (subject two; Example 5, subject, 80 mg daily orally for 4 weeks)
increased sexual desire: sexual desire (FSFI before and after) (subject one; [4])
more confident: confidence while being treated (subject report) (subject one; [1]) | confidence while being treated (subject report) (subject one; [2])
overall improvement: sexual functioning of subjects suffering from sexual dysfunction (subject one; daily oral administration, general statement)
23: Post-Treatment Score, IIEF domain A. Erectile Function (questions 1-5 and 15) (subject two; Example 4, subject, 60 mg daily orally for 4 weeks, maximum score 30, pre-treatment score 8)
very satisfied: FSFI: satisfaction with ability to reach orgasm (subject one; [1]) | FSFI: satisfaction with amount of emotional closeness with partner (subject one; [1]) | FSFI: satisfaction with overall sexual life (subject one; [1]) | FSFI: satisfaction with sexual relationship with partner (subject one; [1]) | FSFI: satisfaction with ability to reach orgasm (subject one; [2]) | FSFI: satisfaction with amount of emotional closeness with partner (subject one; [2]) | FSFI: satisfaction with overall sexual life (subject one; [2]) | FSFI: satisfaction with sexual relationship with partner (subject one; [2]) | FSFI: satisfaction with ability to reach orgasm (subject one; [3]) | FSFI: satisfaction with amount of emotional closeness with partner (subject one; [3]) | FSFI: satisfaction with overall sexual life (subject one; [3]) | FSFI: satisfaction with sexual relationship with partner (subject one; [3])
most times: FSFI: how often became lubricated (subject one; [1]) | FSFI: how often maintained lubrication until completion (subject one; [1]) | FSFI: how often reached orgasm (subject one; [1]) | FSFI: how often satisfied with arousal (subject one; [1]) | FSFI: how often felt sexually aroused (subject one; [2])
almost always or always: FSFI: how often felt sexual desire or interest (subject one; [1]) | FSFI: how often felt sexually aroused (subject one; [1]) | FSFI: how often became lubricated (subject one; [2]) | FSFI: how often felt sexual desire or interest (subject one; [2]) | FSFI: how often reached orgasm (subject one; [2]) | FSFI: how often satisfied with arousal (subject one; [2]) | FSFI: how often became lubricated (subject one; [3]) | FSFI: how often felt sexual desire or interest (subject one; [3]) | FSFI: how often felt sexually aroused (subject one; [3]) | FSFI: how often maintained lubrication until completion (subject one; [3]) | FSFI: how often reached orgasm (subject one; [3]) | FSFI: how often satisfied with arousal (subject one; [3])
3: IIEF question 4 score: able to maintain erection after penetration (subject two; [5]) | IIEF question 6 score: attempts for sexual intercourse (subject two; [5]) | IIEF question 4 score: able to maintain erection after penetration (subject two; [8]) | IIEF question 6 score: attempts for sexual intercourse (subject two; [8])
8: Post-Treatment Score, IIEF domain B. Orgasmic Function (questions 9 and 10) (subject two; [7]) | Post-Treatment Score, IIEF domain E. Overall Satisfaction (questions 13 and 14) (subject two; [7])
improved: effect on all the 5 IIEF domains of male sexual function (subject two; Example 4, subject, 60 mg daily orally for 4 weeks, Table 3)
multiple orgasms: orgasms experienced after taking the drug, not experienced before (subject report) (subject one; [3])
9: Post-Treatment Score, IIEF domain C. Sexual Desire (questions 11 and 12) (subject two; Example 4, subject, 60 mg daily orally for 4 weeks, maximum score 10, pre-treatment score 5)
very high: FSFI: confidence about becoming sexually aroused (subject one; [1]) | FSFI: confidence about becoming sexually aroused (subject one; [2]) | FSFI: level of sexual arousal (subject one; [2]) | FSFI: level of sexual desire or interest (subject one; [2]) | FSFI: confidence about becoming sexually aroused (subject one; [3]) | FSFI: level of sexual arousal (subject one; [3]) | FSFI: level of sexual desire or interest (subject one; [3])
high: FSFI: level of sexual arousal (subject one; [1])
slightly difficult: FSFI: difficulty to become lubricated (subject one; [1]) | FSFI: difficulty to maintain lubrication until completion (subject one; [1])
4: IIEF question 1 score: able to get an erection during sexual activity (subject two; [5]) | IIEF question 2 score: erections hard enough for penetration (subject two; [5]) | IIEF question 3 score: able to penetrate partner when attempting intercourse (subject two; [5]) | IIEF question 5 score: difficulty to maintain erection to completion of intercourse (subject two; [5]) | IIEF question 7 score: attempted intercourse satisfactory (subject two; [5]) | IIEF question 8 score: enjoyment of sexual intercourse (subject two; [5]) | IIEF question 9 score: ejaculated with sexual stimulation or intercourse (subject two; [5]) | IIEF question 10 score: feeling of orgasm or climax (subject two; [5]) | IIEF question 12 score: level of sexual desire (subject two; [5]) | IIEF question 13 score: satisfaction with overall sex life (subject two; [5]) | IIEF question 14 score: satisfaction with sexual relationship with partner (subject two; [5]) | IIEF question 15 score: confidence to get and keep an erection (subject two; [5]) | IIEF question 1 score: able to get an erection during sexual activity (subject two; [8]) | IIEF question 2 score: erections hard enough for penetration (subject two; [8]) | IIEF question 3 score: able to penetrate partner when attempting intercourse (subject two; [8]) | IIEF question 5 score: difficulty to maintain erection to completion of intercourse (subject two; [8]) | IIEF question 7 score: attempted intercourse satisfactory (subject two; [8]) | IIEF question 8 score: enjoyment of sexual intercourse (subject two; [8]) | IIEF question 9 score: ejaculated with sexual stimulation or intercourse (subject two; [8]) | IIEF question 10 score: feeling of orgasm or climax (subject two; [8]) | IIEF question 12 score: level of sexual desire (subject two; [8]) | IIEF question 13 score: satisfaction with overall sex life (subject two; [8]) | IIEF question 14 score: satisfaction with sexual relationship with partner (subject two; [8]) | IIEF question 15 score: confidence to get and keep an erection (subject two; [8])
not difficult: FSFI: difficulty to reach orgasm (subject one; [1]) | FSFI: difficulty to become lubricated (subject one; [2]) | FSFI: difficulty to maintain lubrication until completion (subject one; [2]) | FSFI: difficulty to reach orgasm (subject one; [2]) | FSFI: difficulty to become lubricated (subject one; [3]) | FSFI: difficulty to maintain lubrication until completion (subject one; [3]) | FSFI: difficulty to reach orgasm (subject one; [3])
almost never or never: FSFI: how often maintained lubrication until completion (subject one; [2])
